Data published in the NIST ThermoML archive (doi:10.1021/je060253t).
Values joined by “and” are separate entries in the source; they are usually repeats but may differ in a detail not shown here. Identical values can stand only once. Numbers after ± are expanded uncertainties.

Conditions: 313.15 K; Liquid; Closed cell (Static) method

Compound | vapor or sublimation pressure
CCCO [propan-1-ol] | 6.999 ± 0.038 kPa and 7.007 ± 0.038 kPa and 7 ± 0.038 kPa
COC(C)(C)C [2-methoxy-2-methylpropane] | 59.92 ± 0.21 kPa and 59.91 ± 0.21 kPa
CCCCCC [hexane] | 37.3 ± 0.14 kPa and 37.25 ± 0.14 kPa
